Results reported in ChEMBL document CHEMBL1201862, “PubChem BioAssay data set” (2004).
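Method: 48-hour compound exposure of cells in 96-well plates, five concentrations, linear interpolation of endpoints. The concentration for 50% growth inhibition is given as GI50.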 Active and inactive are the calls of the source. Rule as the data show it: active = GI50 up to about 1.1 µM and inactive = higher.

Legend:
Experiment in all cases: inhibition of tumour cell growth, NCI panel, 48 h
CAKI-1 = tested on: CAKI-1
SNB-75 = tested on: SNB-75
UACC-62 = tested on: UACC-62
PC-3 = tested on: PC-3
HCT-116 = tested on: HCT-116
NCI-H522 = tested on: NCI-H522
OVCAR-8 = tested on: OVCAR-8
SF-268 = tested on: SF-268
SK-MEL-2 = tested on: SK-MEL-2
A549 = tested on: A549
COLO 205 = tested on: COLO 205
ACHN = tested on: ACHN
KM12 = tested on: KM12
HT-29 = tested on: HT-29
SK-MEL-5 = tested on: SK-MEL-5
LOX IMVI = tested on: LOX IMVI
NCI-H460 = tested on: NCI-H460
K562 = tested on: K562
A498 = tested on: A498
786-0 = tested on: 786-0
MDA-MB-435 = tested on: MDA-MB-435
NCI/ADR-RES = tested on: NCI/ADR-RES
Malme-3M = tested on: Malme-3M
BT-549 = tested on: BT-549
EKVX = tested on: EKVX
DU-145 = tested on: DU-145
SK-OV-3 = tested on: SK-OV-3
SK-MEL-28 = tested on: SK-MEL-28
OVCAR-4 = tested on: OVCAR-4
TK-10 = tested on: TK-10
T47D = tested on: T47D
CCRF-CEM = tested on: CCRF-CEM
OVCAR-3 = tested on: OVCAR-3
SNB-19 = tested on: SNB-19
SF-539 = tested on: SF-539
MDA-N = tested on: MDA-N
NCI-H226 = tested on: NCI-H226
RPMI-8226 = tested on: RPMI-8226
IGROV-1 = tested on: IGROV-1
HCC 2998 = tested on: HCC 2998
HCT-15 = tested on: HCT-15
SN12C = tested on: SN12C
M14 = tested on: M14
OVCAR-5 = tested on: OVCAR-5
MCF7 = tested on: MCF7
HOP-92 = tested on: HOP-92
UO-31 = tested on: UO-31
U-251 = tested on: U-251
MOLT-4 = tested on: MOLT-4
UACC-257 = tested on: UACC-257
MDA-MB-231 = tested on: MDA-MB-231
Hs-578T = tested on: Hs-578T
NCI-H23 = tested on: NCI-H23

Measured: GI50

CCOC(=O)CCC(NC(=O)c1ccc(N2CCN(c3c(C)nc(N)nc3N)CC2)cc1)C(=O)OCC (stereo not drawn)
active: UACC-62 0.165 µM | PC-3 0.0398 µM | HCT-116 0.0527 µM | OVCAR-8 0.452 µM | SF-268 0.757 µM | A549 0.213 µM | ACHN 0.122 µM | SK-MEL-5 0.0923 µM | LOX IMVI 0.513 µM | K562 < 0.01 µM | 786-0 0.0929 µM | MDA-MB-435 0.251 µM | CCRF-CEM 0.109 µM | SNB-19 0.514 µM | NCI-H226 0.902 µM | IGROV-1 0.113 µM | MCF7 0.685 µM | U-251 0.0845 µM | MOLT-4 0.186 µM | NCI-H23 0.169 µM
3.36 µM: HCT-15
inactive: CAKI-1 2.52 µM | SNB-75 > 37.1 µM | NCI-H522 11 µM | SK-MEL-2 > 100 µM | COLO 205 > 64.1 µM | KM12 1.43 µM | HT-29 3.15 µM | NCI-H460 6.53 µM | A498 65.2 µM | NCI/ADR-RES 7.43 µM | Malme-3M > 100 µM | BT-549 > 100 µM | EKVX > 78.2 µM | DU-145 > 100 µM | SK-OV-3 > 100 µM | SK-MEL-28 > 31.6 µM | OVCAR-4 > 100 µM | TK-10 > 100 µM | T47D > 88.9 µM | OVCAR-3 > 21.2 µM | SF-539 16.2 µM | MDA-N 12.9 µM | RPMI-8226 1.76 µM | HCC 2998 10.6 µM | SN12C > 22.5 µM | M14 1.32 µM | OVCAR-5 > 100 µM | HOP-92 48.6 µM | UO-31 > 100 µM | UACC-257 15.6 µM | MDA-MB-231 > 100 µM | Hs-578T > 100 µM
